Consider three compounds from patent US20100240074A1 (priority 2007, published 2010).

Assay type in all cases: cell-based, Saccharomyces cerevisiae
For test [1], the system named is parent strain (WT:BY4741). In words: Evaluation of sensitivity to rapamycin (area score, ARS), parent strain. The conditions noted are these: FIG. 5. The method, then: (§1) In the same manner as in Example 5, to confirm drug sensitivity of the barrier-free YKO (BF-YKO) and super barrier-free YKO (SBF-YKO), changes in sensitivity of the yeasts caused by the proliferation inhibiting effect of rapamycin were examined using a parent strain and a partner strain.
(§2) A rapamycin solution was added to a 96-well plate such that the concentration of rapamycin (Sigma-Aldrich, #R0395) was varied within the range of from 0.2 nM to 50 nM. A parent strain (WT:BY4741, Open Biosystems, #YSC1048), a barrier-free strain (BF:KE457), and a super barrier-free strain (SBF:KE477), which had been subjected to static culture at room temperature for 2 days, were added such that the final cell numbers was at a 1000-fold dilution, and then subjected to static culture at 30° C.
(§3) Thereafter, light absorbance thereof at 620 nm was measured over time using a plate reader (SUNRISE, manufactured by Tecan) for 48 hours. Calculation of the cell proliferation inhibiting activity was carried out using the area score method (ARS) described in Japanese Patent Application Laid-Open No. 2006-141298. In ARS, a larger value indicates a greater cell proliferation inhibiting activity.

The subject of test [2] is barrier-free strain (BF:KE457). In words: Evaluation of sensitivity to rapamycin (area score, ARS), barrier-free strain. The conditions noted are these: FIG. 5. The method, then: as §1, §2, §3
Test [3] concerns super barrier-free strain (SBF:KE477). In words: Evaluation of sensitivity to rapamycin (area score, ARS), super barrier-free strain. The method, then: as §1, §2, §3
The next test has as its system barrier-free yeast. In words: Cycloheximide sensitivity of barrier-free yeast. The note with it: cycloheximide 50 ng/ml.
For test [4], the system named is MATa-type super barrier-free YKO strains. In words: Cycloheximide sensitivity of MATa-type super barrier-free YKO strains. The conditions noted are these: cycloheximide 25 ng/ml; all strains. On the procedure:
Instead of picking up the entire grown colonies with the 96-pin replicator, the grown colonies were picked up one by one (1 colony/strain) with a toothpick to transfer it onto new MATa selection agar medium, and culture at 30° C. for 7 days. Grown cells were picked up with a disposable 96-pin replicator, suspended in 100 μl of MATa selection liquid medium, and cultured at 25° C. for 2 to 7 days. Subsequently, the grown cells were transferred to a 384-well plate using a dispenser robot SHOTMASTER 3000.

The test system of test [5] is parent strain (WT:BY4742). In words: Evaluation of sensitivity to lovastatin (area score, ARS), parent strain. The conditions noted are these: lovastatin concentration 100 μM, FIG. 4. On the procedure: (§4) A lovastatin solution was added to a 96-well plate such that the concentration of lovastatin (Sigma-Aldrich, #M2147) was within the range of from 0.39 μM to 100 μM. A parent strain (WT:BY4742, Open Biosystems, #YSC1049) a partner strain for barrier-free YKO (BF:KE458), and a partner strain for super barrier-free YKO (SBF:KE513), which had been subjected to static culture at room temperature for 2 days, were added to the plate such that the final cell number was at a 2000-fold dilution, and then subjected to static culture at 30° C.
as §3

In test [6] the test system is partner strain for barrier-free YKO (BF:KE458). In words: Evaluation of sensitivity to lovastatin (area score, ARS), barrier-free partner strain. On the procedure:
as §4, §3

Test [7] has as its system partner strain for super barrier-free YKO (SBF:KE513). In words: Evaluation of sensitivity to lovastatin (area score, ARS), super barrier-free partner strain. On the procedure: as §4, §3
Test [8] deals with super barrier-free YKO (SBF-YKO) knockout strains. In words: Identification of target molecule using super barrier-free YKO (sensitivity ranking by area score). The note with it: lovastatin 3.125 μM. On the procedure:
Identification of a target molecule of lovastatin was conducted using the super barrier-free YKO (SBF-YKO) composed of 4,044 strains prepared as above. The SBF-YKO strains were inoculated into twelve 384-well plates (1 strain/well) in an ordered manner, and subjected to 3 to 7 days of static culture to equalize the number of cells across all strains. The cells were diluted 196-fold, thereby obtaining a cell dilution.
On the other hand, 384-well plates in which 20 μl of YPAD medium containing 3.9 μM lovastatin was added to each well, and 384-well plates in which 20 μl of lovastatin-free YPAD medium was added to each well were prepared. 5 μl of the obtained cell dilution was added to each well. By this operation, the cells were diluted 1000-fold and the compound concentration was adjusted to 3.125 μM.
(§5) These cells were cultured at 25° C., and light absorbance thereof at 650 nm was measured over time using a plate reader (SPECTRAMAX340PC384, Molecular Devices) from about 22 hours to 48 hours after the beginning of the culture. The area scores (ARS) were calculated based on the obtained data, thereby ranking the sensitivity.
In the same manner as in Example 6, identification of a target molecule of rapamycin was conducted using super barrier-free YKO (SBF-YKO). Each of the SBF-YKO strains was subjected to 3 to 7 days of static culture to equalize the number of cells across all strains. […]

In test [9] the test system is barrier-free YKO (BF-YKO) knockout strains. In words: Identification of target molecule using barrier-free YKO (sensitivity ranking by area score). On the procedure:
Using the barrier-free YKO (BF-YKO) composed of 3,011 strains as prepared above, a target molecule of lovastatin was identified. The strains of BF-YKO were inoculated into twelve 384-well plates (1 strain/well) in an ordered manner. The static culture was performed for 3 to 7 days to equalize the number of cells across all strains. The cells were diluted 196-fold, thereby obtaining a cell dilution.
On the other hand, 384-well plates wherein 20 μl of YPAD medium containing 3.9 μM, 7.8 μM or 15.6 μM lovastatin was added to each well, and 384-well plates in which 20 μl of lovastatin-free YPAD medium was added to each well were prepared. 5 μl of the obtained cell dilution was added to each well. By this operation, the cells were diluted 1000-fold and the respective concentrations of the compound were adjusted to 3.125 μM, 6.25 μM and 12.5 μM.
as §5

Test [10] relates to commercially available YKO (Invitrogen, #95401.H2) knockout strains. In words: Identification of target molecule using commercially available YKO collection (sensitivity ranking by area score). The method, then: Identification of a target molecule of lovastatin was conducted in the same manner as in Example 7, except that commercially available YKO (Invitrogen, #95401.H2) composed of 4,847 strains was used instead of BF-YKO.
Identification of a target molecule of rapamycin was conducted in the same manner as in Example 9, except that commercially available YKO (Invitrogen, #95401.H2) composed of 4,847 strains was used instead of SBF-YKO and that the compound concentrations were changed to 10 nM, 12.5 nM and 15 nM.

[11] abbreviates: based on lovastatin concentrations at which an area score of about 10 was obtained.

`CO[C@H]1C[C@@H]2CC[C@@H](C)[C@@](O)(O2)C(=O)C(=O)N2CCCC[C@H]2C(=O)O[C@H]([C@H](C)C[C@@H]2CC[C@@H](O)[C@H](OC)C2)CC(=O)[C@H](C)/C=C(\C)[C@@H](O)[C@@H](OC)C(=O)[C@H](C)C[C@H](C)/C=C/C=C/C=C/1C` [rapamycin]: the “concentration at which maximum cell proliferation inhibiting effect was observed” value in [1] and in test [2] was 50 nM each time. In addition, in test [3] (FIG. 5), the “concentration at which maximum effect was exhibited” value amounted to 6.25 nM. In [3] (based on rapamycin concentrations at which an area score of about 10 was obtained), the “sensitization relative to the WT strain” value worked out at 8 times.

With `C[C@@H]1C[C@@H]([C@H](O)CC2CC(=O)NC(=O)C2)C(=O)[C@@H](C)C1` [cycloheximide], the “growth in the presence of cycloheximide” value with barrier-free yeast is on record as “cannot grow”; in test [4], “could not grow”.

As to `CC[C@H](C)C(=O)O[C@H]1C[C@@H](C)C=C2C=C[C@H](C)[C@H](CC[C@@H]3C[C@@H](O)CC(=O)O3)[C@H]21` [lovastatin], the “cell proliferation inhibiting effect” value in [5] is recorded as “only a slight cell proliferation inhibiting effect”. Moreover, the “concentration at which maximum inhibiting activity was exhibited” value in [6] (FIG. 4) came to 50 µM; in test [7] (FIG. 4), 25 µM. Also, the “sensitization relative to the WT strain” value in test [6] (setting [11]) came out at 8 times; in test [7] (setting [11]), 16 times. Further, the “sensitivity of BTS1-knockout strain” value in [8] is recorded as “most sensitive knockout strain”; in test [10] (lovastatin 3.125 μM and 12.5 μM), “not found as a strain exhibiting sensitivity”. Moreover, the “sensitivity of HMG1 gene knockout strain” value in test [8] is reported as “high sensitivity”; in test [9] (lovastatin 6.25 μM), “high sensitivity”; in test [9] (lovastatin 12.5 μM), “high sensitivity”; in test [10] (lovastatin 3.125 μM), “not found as a strain exhibiting sensitivity”; in [10] (lovastatin 12.5 μM), “not found as a strain exhibiting sensitivity”.
